Laboratory results published in article PMC12544700, “Identification of a Small Secretoneurin Derivative That Inhibits CaMKIIδ Activity” (Journal of Cellular and Molecular Medicine, 2025).
Peptide text beside a SMILES is read from it. * marks the point of attachment. Biotin = O=C1N[C@H]2[C@H](CS[C@H]2CCCCC(=O)*)N1; Ahx = NCCCCCC(=O)O

Test system: adult rat cardiomyocytes
Assay: Ca2+ imaging (sparks, waves, transients) with ISO stimulation
Format: cell-based
Details: ISO 100 nM
Procedure: Male Wistar rats (Janvier, France) weighing ~300 g were sedated in an anaesthesia chamber by inhalation of 5% isoflurane and 95% O2. The heart was excised under deep surgical anaesthesia, cannulated, and then retrogradely perfused through the aorta on a modified Langendorff setup with cell isolation solution containing (in mM, pH adjusted to 7.4, 37°C): NaCl 130, Hepes 25, D‐glucose 22, KCl 5.4, MgCl2 0.5, NaH2PO4 0.4, and a flow rate of 4 mL/min. After the heart was cleaned of blood, collagenase type II (2 mg/mL, Worthington Biochemical Corp, Lakewood, NJ, USA) was added to the perfusate, and the hearts digested for ~10 min. Following digestion, hearts were cut down, and the left ventricle dissected into pieces, which were transferred into 10 mL cell isolation solution with 250 μL BSA (40 mg/mL) and ~0.2 mg Deoxyribonuclease I (Worthington Biochemical Corporation, Lakewood, NJ, USA). After light agitation (~2 min), the supernatant was filtered (200 μm nylon mesh), and isolated cardiomyocytes were allowed to sediment by gravity. The cardiomyocytes were then washed in isolation buffer containing 1 mg/mL BSA, with a stepwise increase in Ca^2+ concentration up to 0.2 mM. Animal experiments were approved by the Norwegian Research Authority (FOTS ID: 30114). Adult rat cardiomyocytes were treated with 10 μM of SN, SN‐db‐short or scram in 0.2 mM Ca^2+ cell isolation solution for 1 h. These loading concentrations are higher than those used in our previous studies of SN, where we had sought to examine endogenous, circulating levels, rather than potentially therapeutic levels applied exogenously. […] Ca^2+ transients were recorded in linescan mode using a Zeiss LSM 7 Live confocal microscope (Jena, Germany), at a frame rate of 1.5 ms and a pixel size of 0.16 μm. These recordings were normalised to resting fluorescence values to create F/F0 images and assess Ca^2+ transient amplitude. The rate of Ca^2+ transient decline was assessed by measurements of the decay time constant (Tau). Spontaneous sparks and waves were measured during a 9 s pause in the electrical excitation. […]

CC(C)C[C@H](NC(=O)[C@H](CCC(=O)O)NC(=O)[C@H](CCC(N)=O)NC(=O)[C@H](Cc1ccccc1)NC(=O)[C@H](Cc1ccccc1)NC(=O)[C@H](CO)NC(=O)[C@H](CCC(=O)O)NC(=O)[C@H](Cc1ccccc1)NC(=O)[C@@H](NC(=O)[C@H](C)NC(=O)[C@H](CC(C)C)NC(=O)[C@H](CO)NC(=O)[C@H](CCC(N)=O)NC(=O)[C@@H]1CCCN1C(=O)[C@@H](NC(=O)[C@H](Cc1ccc(O)cc1)NC(=O)[C@H](CCC(N)=O)NC(=O)[C@H](CCC(=O)O)NC(=O)CCCCCNC(=O)CCCC[C@@H]1SC[C@@H]2NC(=O)N[C@@H]21)[C@@H](C)O)[C@@H](C)O)C(=O)NCC(=O)N[C@@H](CCCCN)C(=O)O [SN‐db‐short] ({Biotin-Ahx}-EQYTPQSLATFESFFQELGK-OH; N-terminus and C-terminus assumed)
ISO-induced increase of Ca2+ transient amplitude and acceleration of Ca2+ transient decay (10 μM peptide 1 h, field stimulation 1 Hz, Figure 5B–D, n = 22–73, 3–6 rats): significantly attenuated | Ca2+ spark incidence under ISO (10 μM peptide 1 h pre-treatment, 9 s pause after 1 Hz pacing, Figure 4D, n = 35–85 cells from 3 to 6 rats): strong reduction | Ca2+ wave incidence under ISO (10 μM peptide 1 h pre-treatment, 9 s pause after 1 Hz pacing, Figure 4E, n = 35–66 cells from 3 to 5 rats): strong reduction
